In US11028427B2, “Systems and methods for proteomic activity analysis using DNA-encoded probes” (priority 2015, dated 2021):

Columns and labels:
[1] = tested on: caspase 3 in lysates from HeLa cells; assay: Caspase 3 activity in HeLa cell lysates with DNA-encoded probe, qPCR; format: cell-based; settings: HeLa cell lysates with vs without staurosporine treatment to induce apoptosis
PKA = PKA (Homo sapiens, UniProt P17612); assay: PKA peptide substrate kcat/Km comparison; format: biochemical
Text: This extracellular PKA (ecPKA) and other ectokinase activities have recently garnered interest as useful cancer markers. However, the low levels of activity present challenges for detection using conventional methods. Conventional techniques to detect ecPKA in patient samples have relied exclusively on radioactive assays; however, exposure to radioactivity is problematic for those performing the assays, as is the cumbersome amount of paperwork and red tape associated obtaining approval for the use of radioactive assays and the disposal of radioactive waste. However, the PKA level in the serum of healthy individuals has been estimated at about 3 pM, which is below other conventional assay detection limits and, thus, problematic. Using the techniques described herein, a DNA-peptide substrate probe was synthesized based on the highly specific protein inhibitor for PKA—protein kinase inhibitor (PKI)—with the sequence […]. This peptide has about a 100-fold greater kcat/Km than the RRFSL peptide for PKA and provided a significant increase (e.g., a 100-fold) in assay sensitivity. Accordingly, the method 300 for detecting proteomic activity using DNA-encoded probes could provide sensitivity for detection of PKA activity in the bloodstream of a subject to accurately identify upregulation, for example, of ecPKA, which can be indicative of cancer.

BSA [2] = biological target: T1, BSA (Bos taurus, UniProt P02769); assay: Bio-layer interferometry analysis of binding to BSA; set-up: species or system bovine; settings: BSA at 10 μM; data not shown
Experimental: (§1) This crosslinking likely reflects the propensity of BSA to bind to hydrophobic small molecules and potentially to sulfonamides specifically. Thus, this labeling may still be considered ligand-dependent.
DNA conjugates were purified on a Varian Pro Star HPLC system and analytical analysis on an Agilent 1100 series HPLC system, both using Agilent Microsorb-MV 300-5 C18 250×4.6 mm reverse phase columns. Analytical separations were performed using 100 mM triethylammonium acetate (TEAA), pH 5.5 in water (A) or 100 mM triethylammonium acetate in 90% MeCN (B) with a linear gradient from 5-60% B over 22 minutes. Purifications were performed using the previous or 0.75% (v/v) 1,1,1,3,3,3-hexafluoropropan-2-ol, and 10 μM EDTA to pH 7.0 with triethylamine in water (A) or 90% MeOH (B) with a linear gradient from 5-50% B over 22 minutes. ESI-MS analysis was completed using an ABSciex 4500 QTrap from fractions collected from HFIP-based HPLC purifications. MALDI analysis was completed on an Applied Biosystems Voyager DE PRO instrument operated by the Purdue University Campus-Wide Mass Spectrometry Center after TEAA-based purification, ethanol precipitation, and ZipTip cleanup. On-DNA ligand dissociation constants were determined using a ForteBio Octet Red384. […] All gel images were recorded by a GE Healthcare Typhoon Trio+ with gel band quantifications determined using ImageJ software.

BSA [3] = biological target: T1, BSA; assay: Crosslinking to BSA in reactions lacking the target protein, SDS-PAGE; format: binding, bovine; settings: reactive group phenyl azide (5); reactions that lacked the target protein
Experimental: as §1
Photocrosslinking was performed as described above, except the system was allowed to incubate with both the ligand-ssDNA and reactive group-ssDNA′ for 30 minutes at RT. Irradiation was completed by exposure to a 4W 356 nm UV light source at 4° C. for 1 hour, quenched by the addition 6×SDS-loading buffer, and directly analyzed by SDS-PAGE. Gels were imaged immediately for FAM fluorescence and then Coomassie stained.

biotinylated B. CAII = biotinylated B. CAII (Bos taurus, UniProt P00921); assay: Enrichment of ligands via crosslinking (SDS + stringent washes), qPCR; format: binding, bovine; settings: 1 μM CAII
[4] = biological target: Biotinylated B. CAII immobilized on magnetic beads (Bos taurus, UniProt P00921); assay: Enrichment of ligands via solid-phase affinity pulldown, qPCR; format: binding, bovine; settings: for Enrichment (fold change relative to non-ligand (Bz) DNA construct): Solid Phase Affinity Pull down
Text: To prepare constructs for test selections, two CAII ligands and a non-ligand control (FIG. 17) were synthesized on a 5′-amine-modified, 40-mer oligonucleotide, which contained a PEG spacer between two 20-mer sequences as previously described. Using these oligos as primers in a PCR with unique 100-mer templates gave 100-mer dsDNA products tethered to the ligand-containing 20-mer ssDNA. DNA templates assigned to each ligand 1302 contained a unique, internal 20-mer sequence for use as a specific priming site to enable qPCR analysis of ligand enrichments. A mock library was then prepared by mixing ligand constructs GL-CBS and D-CBS at 0.1 nM each with an excess of control, non-ligand construct (Bz) (10 nM).
Using this mixture, test selections were conducted using the crosslinking approach with the sulfonyl fluoride oligo or using a traditional solid-phase selection with CAII immobilized on magnetic beads.
Biotinylated B. CAII (1.2× based on magnetic bead capacity) was immobilized onto pre-washed Nanolink Streptavidin Magnetic Beads by incubating in 0.1 M sodium phosphate, pH 8.0, 0.25 M NaCl, 0.02% (v/v) Tween-20, 1.0 mg/mL tRNA, 10 μM BSA for 2 h at RT. The magnetic beads were then separated and supernatant removed. The CAII-bound magnetic beads were then washed with the above buffer three times and a premix of ligand-dsDNA and non-ligand-dsDNA (0.1 nM and 10 nM, respectively) in the above buffer (in the appropriate volume to give the desired effective protein concentration) was added and incubated at RT for 1.5 h. The magnetic beads were then separated and DNA supernatant removed. The CAII-bound magnetic beads were then washed with the above buffer five times, maintaining the same effective protein concentration in each wash. After the final wash, the magnetic beads were suspended in […] and heated at 95° C. for 5 min. qPCR analysis of the premix and magnetic bead elution was completed by comparison of CT standard curves of identical dsDNA constructs.

Sequence of Biotinylated B. CAII immobilized on magnetic beads (P00921 whole entry): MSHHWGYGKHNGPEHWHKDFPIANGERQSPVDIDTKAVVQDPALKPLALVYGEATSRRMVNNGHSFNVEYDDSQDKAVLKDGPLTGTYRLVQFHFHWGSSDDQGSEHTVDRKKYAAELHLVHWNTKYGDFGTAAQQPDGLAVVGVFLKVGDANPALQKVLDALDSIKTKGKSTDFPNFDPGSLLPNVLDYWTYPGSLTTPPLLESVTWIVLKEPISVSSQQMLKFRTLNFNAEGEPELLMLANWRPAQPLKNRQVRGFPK
Sequence of biotinylated B. CAII (P00921 whole entry): as above
T1 sequence (P02769 25-607): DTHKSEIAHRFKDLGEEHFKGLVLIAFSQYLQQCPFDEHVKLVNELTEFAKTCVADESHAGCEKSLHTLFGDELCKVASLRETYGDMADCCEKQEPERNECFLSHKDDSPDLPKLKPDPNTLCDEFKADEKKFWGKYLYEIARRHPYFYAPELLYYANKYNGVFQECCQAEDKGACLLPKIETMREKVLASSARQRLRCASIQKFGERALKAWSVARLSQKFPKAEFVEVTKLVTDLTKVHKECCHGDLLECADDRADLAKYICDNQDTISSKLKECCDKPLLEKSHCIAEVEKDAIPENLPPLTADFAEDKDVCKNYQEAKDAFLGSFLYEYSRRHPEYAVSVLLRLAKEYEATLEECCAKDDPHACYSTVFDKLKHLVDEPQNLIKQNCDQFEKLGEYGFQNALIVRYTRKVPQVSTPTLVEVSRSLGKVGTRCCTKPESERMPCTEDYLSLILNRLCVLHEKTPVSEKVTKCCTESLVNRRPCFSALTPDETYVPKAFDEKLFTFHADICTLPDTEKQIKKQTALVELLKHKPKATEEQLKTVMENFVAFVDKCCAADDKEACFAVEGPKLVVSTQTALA

## CN[C@@H]1C[C@H]2O[C@@](C)([C@@H]1OC)n1c3ccccc3c3c4c(c5c6ccccc6n2c5c31)C(=O)NC4 [staurosporine]
[1]
  Increase in caspase activity: ~6 fold

## GRTGRRNSI
PKA
  kcat/Km relative to the RRFSL peptide: ~100 fold

## glycylleucine carboxybenzylsulfonamide [GL-CBS]
BSA [2]
  Binding to BSA: did not indicate binding
BSA [3]
  BSA crosslinking: significant levels of BSA crosslinking
Biotinylated B. CAII; Without X-linking (3'-OH ssDNA)
  Enrichment (fold change relative to non-ligand (Bz) DNA construct): 22 fold
Biotinylated B. CAII; X-linking with 3 (sulfonyl fluoride)
  Enrichment (fold change in concentration of ligand-DNA construct relative to non-ligand (Bz) DNA construct): 17,000 fold
[4]; 1 μM CAII
  Overall enrichment in solid-phase selection compared to crosslinking selection (lower): 20 fold
  Recovery in solid-phase selection compared to crosslinking selection (greater): approximately 5 fold
  Enrichment (fold change relative to non-ligand (Bz) DNA construct): 720 fold
[4]; 17 μM CAII (estimated)
  Enrichment (fold change relative to non-ligand (Bz) DNA construct): 610 fold
